Reference: patent publication US20250114346A1, “COMBINATION THERAPY USING A KRAS G12D INHIBITOR AND PD-1 INHIBITOR OR PD-L1 INHIBITOR” (Incyte Corporation, priority 2023, published 2025)
Where “and” joins values, the source holds several entries; their conditions need not be identical. Equal values may be shown once. Where a name gives a salt, the structure may show the parent alone.

Key:
[1] = system: CT-26 Clone 299 cells; assay: CT-26 Clone 299 syngeneic efficacy model; type: in vivo, BALB/c-hPD1/hPDL1 mice; settings: for monotherapy-treated mice succumbed to tumor growth: after treatment cessation, by day 43, Compound 1 at 100 mg/kg
Procedure: BALB/c-hPD1/hPDL1 mice (GemPharmatech, strain #T004025) express human PDCD1 and CD274 (which encode the PD-1 and PD-L1 proteins, respectively) from the respective murine loci for those genes.
For survival (Kaplan-Meier) analysis: in the Compound 1 study, events were recorded when tumor volumes reached 1700 mm^3 or mice met criteria for humane endpoint (e.g. body weight loss, tumor ulceration, overall condition); in the Compound 3 study, events were recorded when tumor volumes reached 2000 mm^3, when mice met criteria for humane endpoint, or upon confirmed recurrence following a complete response (confirmed recurrence defined as a growing tumor […] following a complete response as defined above).

[2] = system: pERK (Phospho/Total ERK1/2) in CT-26 Clone 299 tumors; assay: CT-26 Clone 299 pharmacodynamic model (pERK/total ERK in tumor lysates, MesoScale); type: in vivo, BALB/c-hPD1/hPDL1 mice
Procedure: Female BALB/c-hPD1/hPDL1 mice (GemPharmatech, aged 8-10 weeks) were inoculated subcutaneously with 1.0×10^6 CT-26 Clone 299 cells suspended in phosphate buffered saline.
Oral dose administration was continuous for 5 days and 2 doses of Retifanlimab was given. On day 5, plasma and tumor samples were collected 4 hour post oral dose and 24 hours post IP dose following CO2 asphyxiation. Blood was collected into ethylenediaminetetraacetic acid (450480 Greiner Bio-One) tubes. The plasma was analyzed for drug levels. Two tumor fragments per individual were collected and weighed into Omni Bead Ruptor tubes (19-628 Omni International) and flash frozen. One tumor piece was lysed at a 1:5 ratio with homogenization solution (water:acetonitrile:formic acid, 95:5:0.1, v:v:v) for drug concentration analysis. The second tumor piece was then lysed at a 1:5 ratio with lysis buffer (64KL1 FD, Cisbio) with added protease inhibitors (A32957 and A32965, Thermo Fisher) and Blocking Reagent (64KB1AAC, Cisbio) on a Bead Ruptor Elite homogenizer (19-042E, Omni International, Kennesaw, GA). Tumor lysates were spun at 10,000 revolutions per minute for 10 minutes at 4° C. The protein concentration was determined using the Pierce™ BCA Protein Assay method according to the manufacturer's protocol (23227 Thermo Fisher Scientific). The lysates were diluted with additional lysis buffer to a final concentration of 0.4 μg/μL. Samples were analyzed using the MesoScale Discovery Platform on the Phospho/Total ERK1/2 Whole Cell Lysate Kit (K15107D, MesoScale Discovery, Rockville, MD). The pERK levels were first normalized to total ERK for each sample and then to the average pERK/tERK ratio of the vehicle control group.

Compound: Cc1c(Nc2nc(C(F)F)nc3cc(CN4CC[C@@H](O)C4)cnc23)cccc1-c1cccc(-c2nc3cc(CN4CCC(C(=O)O)CC4)cc(C#N)c3o2)c1C [Compound 2, (R)-1-((7-Cyano-2-(3′-(2-(difluoromethyl)-7-((3-hydroxypyrrolidin-1-yl)methyl)pyrido[3,2-d]pyrimidin-4-ylamino)-2,2′-dimethylbiphenyl-3-yl)benzo[d]oxazol-5-yl)methyl)piperidine-4-carboxylic acid]
- TGI (tumor growth inhibition) ([1]; Compound 2 25 mg/kg BID PO monotherapy, day 25): 17%
- tumor growth ([1]; Compound 2 25 mg/kg BID monotherapy, Compound 3 study): did not meaningfully alter tumor growth
- monotherapy-treated mice succumbed to tumor growth [1]: 100%
- inhibition at 25 mg/kg ([2]; Mus musculus, CT26, Compound 2 25 mg/kg BID, 5 days, 4-hour post dose): 10%

Compound: COC(=O)N1[C@@H]2C[C@@H]([C@@H](OC(F)F)C2)[C@@H]1c1cc2c(C)nc3c(F)c(-c4cccc(Cl)c4Cl)c(CCC#N)cc3c2n1[C@H]1[C@H]2CN[C@@H]1C2 (atropisomer, axis not shown; (Ra)) [Compound 3, Methyl (1R,3R,4R,5S)-3-((Ra)-1-((1R,4R,5S)-2-azabicyclo[2.1.1]hexan-5-yl)-8-(2-cyanoethyl)-7-(2,3-dichlorophenyl)-6-fluoro-4-methyl-1H-pyrrolo[3,2-c]quinolin-2-yl)-5-(difluoromethoxy)-2-azabicyclo[2.2.1]heptane-2-carboxylate]
- TGI (tumor growth inhibition) ([1]; Compound 3 10 mg/kg BID PO monotherapy, day 34, vs vehicle (p=0.1127)): 47%
- TGI (tumor growth inhibition) ([1]; Compound 3 30 mg/kg BID PO monotherapy, day 34, vs vehicle (p=0.0411)): 92%

Compound: retifanlimab: humanized IgG4 monoclonal antibody that binds to human PD-1 [reference compound]
- monotherapy-treated mice succumbed to tumor growth [1]: 90%
- TGI (tumor growth inhibition) ([1]; retifanlimab 10 mg/kg BIW IP monotherapy, day 25, Compound 1 study): 52%
- TGI (tumor growth inhibition) ([1]; retifanlimab 10 mg/kg BIW monotherapy, day 34, Compound 3 study (p=0.0263)): 74%
- pERK inhibition ([2]; retifanlimab 10 mg/kg BIW, 24 hours post second dose): 18%

Compound: Cc1nc2c(F)c(-c3cccc(Cl)c3Cl)c(CCC#N)cc2c2c1cc([C@H]1C[C@H]3C[C@H]3N1C(=O)C1CC1)n2[C@H]1[C@H]2CN[C@@H]1C2 (atropisomer, axis not shown; (Ra)) [Compound 1, 3-((Ra)-1-((1R,4R,5S)-2-azabicyclo[2.1.1]hexan-5-yl)-2-((1R,3R,5R)-2-(cyclopropanecarbonyl)-2-azabicyclo[3.1.0]hexan-3-yl)-7-(2,3-dichlorophenyl)-6-fluoro-4-methyl-1H-pyrrolo[3,2-c]quinolin-8-yl)propanenitrile monohydrochloride dihydrate]
- pERK/ERK Inhibition Relative to Vehicle Control (%, Mean) ([2]; 100 mg/kg Cmpd 1 QD, 4 Hr, monohydrochloride dihydrate): 84% and 56% and 85% and 89%
